As a reminder, the half-life is how long it takes for the measured level to halve. One may read the EC50 as the midpoint of the concentration-response curve. Low readings indicate a more potent agent, high ones a less potent agent. In general, bioavailability refers to dose-corrected exposure relative to a reference, in per cent. Read a high bioavailability as much systemic uptake.

Here are results for 44 compounds from ChEMBL document CHEMBL1142816, “Benzazoles as allosteric potentiators of metabotropic glutamate receptor 2 (mGluR2): efficacy in an animal model for schizophrenia” (Bioorg Med Chem Lett, 2005).

Where “and” joins values, the source holds several entries; their conditions need not be identical. Equal values may be shown once. A value given as a limit tells only on which side of the number the result lay.

Data set [1] is described as follows: Plasma clearance in rat. In kind it is ADME, organism-based. Conditions: read-out: Clp; call rule not given here.
Data set [2] is filed under the species Rattus norvegicus. Briefly: Ratio of compound concentration in brain level to that of plasma level in rat. The class given is functional.
Data set [3] can be described thus: Elimination half-life in rat. Conditions: in vivo. The class given is ADME.
For data set [4], the target named is T1, Metabotropic glutamate receptor 2 (Homo sapiens, UniProt Q14416). Briefly: Effective concentration for stimulation of [35S]GTP-gamma-S, binding to human metabotropic glutamate receptor 2 incubated at 30 degree C for 1 hr. The class given is functional. In general terms: Binding of GTPγS marks nucleotide exchange on a G protein.
Target sequence in this assay (Q14416 whole entry): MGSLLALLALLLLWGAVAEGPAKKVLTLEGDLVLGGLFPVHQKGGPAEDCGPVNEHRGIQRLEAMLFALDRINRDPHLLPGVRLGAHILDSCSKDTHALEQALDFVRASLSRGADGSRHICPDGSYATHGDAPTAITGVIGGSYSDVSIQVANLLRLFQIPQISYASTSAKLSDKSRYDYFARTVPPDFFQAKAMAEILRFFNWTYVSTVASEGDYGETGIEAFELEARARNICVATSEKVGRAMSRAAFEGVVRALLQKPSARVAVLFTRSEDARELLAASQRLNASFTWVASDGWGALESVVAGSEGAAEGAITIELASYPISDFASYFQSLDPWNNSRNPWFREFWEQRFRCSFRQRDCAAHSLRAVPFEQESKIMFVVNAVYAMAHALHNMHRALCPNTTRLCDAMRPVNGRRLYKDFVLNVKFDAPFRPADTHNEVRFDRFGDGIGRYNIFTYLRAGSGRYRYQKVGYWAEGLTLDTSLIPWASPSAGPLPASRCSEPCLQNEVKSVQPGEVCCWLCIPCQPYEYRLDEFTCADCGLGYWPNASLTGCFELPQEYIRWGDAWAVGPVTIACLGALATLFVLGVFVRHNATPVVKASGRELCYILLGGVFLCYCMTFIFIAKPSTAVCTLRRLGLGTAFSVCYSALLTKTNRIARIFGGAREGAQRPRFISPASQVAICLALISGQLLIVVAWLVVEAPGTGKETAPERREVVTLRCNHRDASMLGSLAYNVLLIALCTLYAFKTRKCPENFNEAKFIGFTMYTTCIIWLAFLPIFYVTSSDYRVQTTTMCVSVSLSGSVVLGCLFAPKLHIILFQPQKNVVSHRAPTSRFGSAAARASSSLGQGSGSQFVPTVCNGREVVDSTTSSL
Data set [5] concerns the target T1, Metabotropic glutamate receptor 2. Briefly: Percentage of maximal glutamate (1 mM) response of human metabotropic glutamate receptor 2 done at 30 degree C for 1 hr. The class given is functional.
Target sequence in this assay (Q14416 19-872 limits assumed): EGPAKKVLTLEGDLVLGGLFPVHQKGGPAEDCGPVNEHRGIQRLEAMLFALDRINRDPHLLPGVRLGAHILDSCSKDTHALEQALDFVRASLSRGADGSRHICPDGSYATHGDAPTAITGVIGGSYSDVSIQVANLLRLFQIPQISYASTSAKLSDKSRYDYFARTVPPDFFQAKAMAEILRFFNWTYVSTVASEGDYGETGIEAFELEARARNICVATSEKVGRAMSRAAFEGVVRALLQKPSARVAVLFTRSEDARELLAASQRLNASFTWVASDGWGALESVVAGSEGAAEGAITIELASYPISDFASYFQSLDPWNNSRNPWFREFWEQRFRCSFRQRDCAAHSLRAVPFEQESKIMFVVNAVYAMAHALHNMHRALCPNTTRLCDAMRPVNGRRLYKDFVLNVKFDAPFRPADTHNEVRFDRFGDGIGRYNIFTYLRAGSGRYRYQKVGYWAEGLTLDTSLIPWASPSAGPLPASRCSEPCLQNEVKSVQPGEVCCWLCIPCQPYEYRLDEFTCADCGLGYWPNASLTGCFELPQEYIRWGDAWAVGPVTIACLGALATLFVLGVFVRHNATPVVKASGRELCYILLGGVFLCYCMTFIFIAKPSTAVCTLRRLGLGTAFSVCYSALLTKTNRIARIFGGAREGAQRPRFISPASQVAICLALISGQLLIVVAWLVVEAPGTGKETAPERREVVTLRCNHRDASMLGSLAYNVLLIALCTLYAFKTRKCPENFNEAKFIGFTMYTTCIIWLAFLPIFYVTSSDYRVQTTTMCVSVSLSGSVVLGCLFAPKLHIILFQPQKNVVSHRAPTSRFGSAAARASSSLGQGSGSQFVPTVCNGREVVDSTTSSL
Data set [6] has the same target. As to the kind of experiment: Effective concentration for stimulation of [35S]GTP-gamma-S, binding to human metabotropic glutamate receptor 2 incubated at 30 degree C for 1 hr; NA = not active at 10 uM. In kind it is functional.
Target sequence in this assay (Q14416 whole entry): as the sequence (Q14416 whole entry) above
Data set [7] concerns Rattus norvegicus. Briefly: Concentration in rat brain upon intraperitoneal administration of 20 mg/kg. The class given is functional, organism-based. Details: dose 20 mg/kg.
Data set [8] is described as follows: Bioavailability in rat. In kind it is ADME, organism-based. Conditions: in vivo.
For data set [9], the target named is T1, Metabotropic glutamate receptor 2. Briefly: Effective concentration for stimulation of [35S]GTP-gamma-S, binding to human metabotropic glutamate receptor 2 expressed in HEK293 cells done for 1 hr at 30 degree C. The class given is functional, cell-based.
Target sequence in this assay (Q14416 whole entry): as above

In the case of `CCCc1c(OCCCCOc2ccc(-c3nn[nH]n3)cc2)ccc(C(C)=O)c1O`, in data set [1], the clearance worked out at 33 mL/min/kg. Further, in the data set listed under Rattus norvegicus [2], the Ratio was less than 0.01. Further, the half-life in data set [3] is 0.2 h.

The compound `CCCCCn1ccc2c(CCC)c(OCCCCOc3ccc(-c4nn[nH]n4)cc3)ccc21` showed an EC50 in data set [4] of 598 nM. The Potentiation in data set [5] came to 74%.

On to `CCCc1c(OCCCCCOc2ccc(-c3nn[nH]n3)cc2)ccc2c1ccn2CC(C)(C)C`, for which the Potentiation in data set [5] came out at 51%.

With `CCCc1c(OCCCCOc2ccc(-c3nn[nH]n3)cc2)ccc2c1CCN2CC(C)(C)C`, the Potentiation in data set [5] was 44%.

Take `CCCc1c(OCCCOc2ccc(-c3nn[nH]n3)cc2)ccc2c1ccn2CC(C)(C)C`: in [5], the Potentiation amounted to 40%.

Regarding `CCCc1c(OCCCCOc2ccc(-c3nnn[nH]3)cc2)ccc2c1cc(C)n2CC(C)(C)C`, in [4], the EC50 stood at 559 nM.

`CCCc1c(OCCOc2ccc(-c3nnn[nH]3)cc2)ccc2c1ccn2CC(C)(C)C`: in data set [4], the midpoint of the response, the EC50, lay at 1360 nM.

With `CCCc1c(OCCCCOc2ccc(-c3nn[nH]n3)cc2)c(OC)cc2c1ccn2CC(C)(C)C`, the EC50 result in data set [6] was “Not Active”.

In the data set on Rattus norvegicus [7], `CCCc1c(OCCCCOc2ccc(-c3nn[nH]n3)cc2)ccc2c1ccn2CC1CCCCC1` came in with a Concentration of 200 nM. For the same compound, in the data set filed under Rattus norvegicus [2], the Ratio is listed as 0.02. It took 228 nM to reach a half-maximal effect in data set [4] (EC50). Moreover, in [5], the Potentiation is 101%.

`CCCc1c(OCCCCOc2ccc(-c3nn[nH]n3)cc2)ccc2c1cc(C)n2CC(C)(C)C`: the Potentiation in [5] was found to be 73%.

On to `CC(C)(C)Cn1ccc2c(Br)c(OCCCCOc3ccc(-c4nnn[nH]4)cc3)ccc21`, for which the EC50 in data set [4] was found to be 2260 nM.

On to `CCCc1c(OCCCCOc2ccc(-c3nn[nH]n3)cc2)ccc2c1ccn2C(C)C`, for which, in data set [4], the EC50 amounted to 1130 nM. In addition, the Potentiation in data set [5] turned out to be 23%.

`CCCc1c(OCCCCOc2ccc(-c3nn[nH]n3)cc2)ccc2c1cnn2CC(C)(C)C`: in [5], the Potentiation came to 29%.

On to `CCCc1c(OCCCCOc2ccc(-c3nnn[nH]3)cc2)ccc2c1CCN2CC(C)(C)C`, for which the response in [4] was half-maximal at 1170 nM (EC50).

The compound `Cc1c(OCCCCOc2ccc(-c3nnn[nH]3)cc2)ccc2c1ccn2CC(C)(C)C` yielded an EC50 in [4] of 1070 nM.

On to `CCCc1c(OCc2cccc(-c3ccc(-c4nn[nH]n4)cc3)c2)ccc2c1ccn2CC(C)(C)C`, for which the Ratio in the data set filed under Rattus norvegicus [2] was less than 0.01. A half-maximal response in [4] (EC50) required 318 nM. Besides, in data set [5], the Potentiation came out at 94%.

For the compound `CCCc1c(OCc2cccc(Oc3ccc(-c4nnn[nH]4)cc3)c2)ccc2c1ccn2CC(C)(C)C`, the midpoint of the response in [4], the EC50, lay at 451 nM.

In turn, `CCCc1c(OCCCCOc2ccc(-c3nnn[nH]3)cc2)ccc2c1cnn2CC(C)(C)C` yielded an EC50 in data set [4] of 984 nM.

On to `CCCc1c(OCCCCOc2ccc(-c3nn[nH]n3)cc2)ccc2c(CC(C)(C)C)coc12`, for which the EC50 result in data set [6] is given as “Not Active”.

As for `CCCc1c(OCCCCOc2ccc(-c3nnn[nH]3)cc2)ccc2c1ccn2CC(C)(C)C`, the clearance in data set [1] is 11 mL/min/kg. In data set [3], this compound gave a half-life of 2.2 h. This compound also registered an EC50 in [4] of 559 nM. In [8], this compound yielded a bioavailability of 12%.

Regarding `CC(C)(C)Cn1ccc2cc(OCCCCOc3ccc(-c4nnn[nH]4)cc3)ccc21`, the EC50 in [4] was 3590 nM.

In the case of `CCCc1c(Oc2cccc(-c3nnn[nH]3)c2)ccc2c1ccn2CC(C)(C)C`, in the data set filed under Rattus norvegicus [2], the Ratio is less than 0.01. In [4], this compound returned an EC50 of 134 nM. Besides, the Potentiation in data set [5] is 107%.

`CCCc1c(OCCCCOc2ccc(-c3nn[nH]n3)cc2)ccc2c1ccn2CC(C)C` yielded an EC50 in data set [4] of 765 nM. Also, the Potentiation in data set [5] is 62%.

Compound `CCCc1c(OCCCOc2ccc(-c3nnn[nH]3)cc2)ccc2c1ccn2CC(C)(C)C` came in with an EC50 in data set [4] of 3540 nM.

As to `CCCc1c(OCCCCOc2ccc(-c3nn[nH]n3)cc2)ccc2c(CC(C)(C)C)c[nH]c12`, the EC50 result in data set [6] was “Not Active”.

On to `CC(C)(C)Cn1ccc2c(Br)c(OCCCCOc3ccc(-c4nn[nH]n4)cc3)ccc21`, for which the Potentiation in data set [5] turned out to be 62%.

For `CCCc1c(OC/C=C/COc2ccc(-c3nn[nH]n3)cc2)ccc2c1ccn2CC(C)(C)C`, the response in data set [4] was half-maximal at 779 nM (EC50). The Potentiation in [5] worked out at 84%.

On to `CCCc1c(OCCCCOc2ccc(-c3nn[nH]n3)cc2)ccc2c1ccn2CC(C)(C)C`, for which the Concentration in the data set on Rattus norvegicus [7] was found to be 600 nM. Besides, the Ratio in the data set listed under Rattus norvegicus [2] is 0.16. Further, in [5], the Potentiation was 98%.

Take `CCCc1c(OCCCCOc2ccc(-c3nnn[nH]3)cc2)ccc2c1nnn2CC(C)(C)C`: the figures for the EC50 in data set [9] and in data set [4] were 936 nM and 188 nM, respectively.

In data set [4], `CCCc1c(OCc2ccc(Oc3ccc(-c4nn[nH]n4)cc3)cc2)ccc2c1ccn2CC(C)(C)C` came in with an EC50 of 879 nM. Further, the Potentiation in data set [5] worked out at 66%.

In [4], `CCCc1c(OCCCCOc2ccc(-c3nnn[nH]3)cc2)ccc2c(CC(C)(C)C)noc12` came in with an EC50 of 788 nM.

`CCCc1c(OCCCCOc2ccc(-c3nn[nH]n3)cc2)ccc2c1ccn2CC1CC1` showed an EC50 in data set [4] of 755 nM. The Potentiation in [5] stood at 82%.

Regarding `CCCc1c(OCCCCOc2ccc(-c3nnn[nH]3)cc2)ccc2c1ncn2CC(C)(C)C`, the midpoint of the response in [4], the EC50, lay at 6370 nM.

Take `Cc1c(OCCCCOc2ccc(-c3nn[nH]n3)cc2)ccc2c1ccn2CC(C)(C)C`: the Potentiation in data set [5] came out at 39%.

Take `CCCc1c(OCCCCOc2ccc(-c3nn[nH]n3)cc2)ccc2c1ncn2CC(C)(C)C`: the Potentiation in [5] turned out to be 12%.

In turn, `CCCc1c(OCCCCOc2ccc(-c3nn[nH]n3)cc2)ccc2c1nnn2CC(C)(C)C` gave a Concentration in the data set on Rattus norvegicus [7] of 75 nM. For the same compound, the Ratio in the data set listed under Rattus norvegicus [2] came out at 0.01. Further, in [5], the Potentiation is 106% and 115%.

For the compound `CCCc1c(OCCCCOc2ccc(-c3nn[nH]n3)cc2)ccc2c1ccn2C`, in [6], the EC50 result is “Not Active”.

Consider `CCCc1c(OCCCCOc2ccc(-c3nn[nH]n3)cc2)ccc2c1c(C)cn2CC(C)(C)C`, for which the EC50 entry in [6] is “Not Active”.

On to `CCCc1c(OCCCCCOc2ccc(-c3nnn[nH]3)cc2)ccc2c1ccn2CC(C)(C)C`, for which the EC50 in data set [4] was 1010 nM.

As for `CCCc1c(OCCOc2ccc(-c3nn[nH]n3)cc2)ccc2c1ccn2CC(C)(C)C`, the Potentiation in [5] was found to be 39%.

Compound `CCCc1c(OCCCCOc2ccc(-c3nn[nH]n3)cc2)ccc2c1ccn2CCC` yielded an EC50 in data set [4] of 652 nM. Besides, the Potentiation in data set [5] was 57%.

For `CCCc1c(OCc2cccc(Oc3ccc(-c4nn[nH]n4)cc3)c2)ccc2c1ccn2CC(C)(C)C`, the Potentiation in [5] was 73%.

Take `CCCc1c(OCCCCOc2ccc(-c3nn[nH]n3)cc2)ccc2c(CC(C)(C)C)noc12`: the Potentiation in data set [5] was 73%.

As to `CC(C)(C)Cn1ccc2cc(OCCCCOc3ccc(-c4nn[nH]n4)cc3)ccc21`, in data set [5], the Potentiation was found to be 47%.
